# Tested on: Neonatal calvaria (bone resorption)
# Experiment: Inhibition of hPTH-induced bone resorption in cultured neonatal rat calvaria (calcium accumulation in medium)
# Format: cell-based, rat (Wistar)
# Conditions: Test Compound 1×10^-5 M with hPTH(1-34) 1×10^-8 M; calvaria halves cultured 6 days at 37° C.; total calcium in medium by OCPC method
# Protocol: Neonatal calvaria were dissected aseptically from 1-2 day old rat (Wistar), washed in Dulbecco's modified eagle's medium and divided along the sagittal suture. The calvaria halves were pooled and randomized in the different groups. The calvaria halves were cultured separately as free-floating bones in multi-well dishes containing a 2 ml of Dubecco's modified eagle's medium, with 10% heat-inactivated (56° C. for 1 hr) fetal calf serum. Treatment of hPTH(1-34)(1×10 ^-8 M) and the Test Compound (1×10 ^-5 M) was begun at zero time. All incubations were performed at 37° C., under an atmosphere of 95% air and 5% CO2 for 6 days. Bone resorption was determined by measuring the accumulation of calcium in the medium at 6 days. The concentration of total calcium in culture medium was measured by OCPC method with a spectrophotometer (Hitachi model U-3200, Tokyo, Japan).
# As comparative data, similar tests were conducted using culture medium with hPTH (1×10^-8 M)only, and culture medium without both hPTH and Test Compound.
# Test results were represented in terms of percentage of inhibition calculated by the following formula: [formula] CD the concentration of total calcium in culture medium treated with both hPTH and Test Compound
# CO the concentration of total calcium in control culture medium without both hPTH and Test Compound
# CP the concentration of total calcium in culture medium treated with hPTH only
row,SMILES,Inhibition (%)
1,"CC(C)Oc1ccc2c(c1)N(C)C(=O)N(c1ccc(C(F)(F)F)cc1)S2(=O)=O [(d), 2-(4-Trifluoromethylphenyl)-4-methyl-6-isopropoxy-2H-1,2,4-benzothiadiazine-3(4H)-one 1,1-dioxide]",52.9%
2,"CC(C)COc1ccc2c(c1)N(C)C(=O)N(c1ccc(Cl)cc1)S2(=O)=O [(b), 2-(4-Chlorophenyl)-4-methyl-6-(2-methylpropoxy)-2H-1,2,4-benzothiadiazine-3(4H)-one 1,1-dioxide]",56.1%
3,"CC(C)Oc1ccc2c(c1)N(C)C(=O)N(c1ccc(Cl)cc1)S2(=O)=O [(a), 2-(4-Chlorophenyl)-6-isopropoxy-4-methyl-2H-1,2,4-benzothiadiazine-3(4H)-one 1,1-dioxide]",79.7%
4,"CC(Oc1ccc2c(c1)N(C)C(=O)N(c1ccc(Cl)cc1)S2(=O)=O)C(=O)O (stereo not drawn) [(e), 2-(4-Chlorophenyl)-6-(l-carboxyethoxy)-4-methyl-2H-1,2,4-benzothiadiazine-3(4H)-one 1,1-dioxide]",67.9%
5,"C[C@@H](Oc1ccc2c(c1)N(C)C(=O)N(c1ccc(Cl)cc1)S2(=O)=O)C(=O)O [(f), (1R)-(+)-2-(4-Chlorophenyl)-6-(l-carboxyethoxy)-4-methyl-2H-1,2,4-benzothiadiazine-3(4H)-one 1,1-dioxide]",50.2%
6,"CN1C(=O)N(c2ccc(Cl)cc2)S(=O)(=O)c2ccc(OCC3CCCCC3)cc21 [(c), 2-(4-Chlorophenyl)-4-methyl-6-cyclohexylmethoxy-2H -1,2,4-benzothiadiazine-3(4H)-one 1,1-dioxide]",62.5%
